The record followed here is US10532106B2 (priority 2014, dated 2020).

SMILES strings stand for the structures. Like-named read-outs stand apart in the source and are kept apart here. Numbered stars: 1 amine (or outer) side, 2 acyl side, 3 side chain; on linkers, the order of the positions; unused ones are H or OH. Bridge positions count the residues as written; N and C are the ends. Square brackets hold non-standard residues; d marks the D form. Peptide text beside a SMILES is read from it. Phe(4-Br) = N[C@@H](Cc1ccc(Br)cc1)C(=O)O; 1Nal = N[C@@H](Cc1cccc2ccccc12)C(=O)O; 2Nal = N[C@@H](Cc1ccc2ccccc2c1)C(=O)O; TBMB = c1c(C[*:1])cc(C[*:3])cc1C[*:2]; Chg = N[C@H](C(=O)O)C1CCCCC1; Phg = N[C@H](C(=O)O)c1ccccc1; Tle = CC(C)(C)[C@H](N)C(=O)O

For the experiment, the target named is T1, MT1-MMP hemopexin domain (Homo sapiens, UniProt P50281).
T1 construct: residues Cys319-Gly511 from the human gene; His6 (N); made in house; host or cells: HEK293 (transient), pEXPR-IBA42 vector
The experiment in a line: Competition assay using fluorescence polarisation. The format is binding. Particulars: read-out: Kd. An excerpt: Here, a pre-formed complex of PEX with the fluorescent PEX-binding tracer is titrated with free, non-fluoresceinated bicyclic peptide. Since all 17-69-based peptides are expected to bind at the same site, the titrant will displace the fluorescent tracer from PEX. Dissociation of the complex can be measured quantitatively, and the Kd of the competitor (titrant) to the target protein determined. The advantage of the competition method is that the affinities of non-fluoresceinated bicyclic peptides can be determined accurately and rapidly.
Subsequently, the non-fluorescent competitor bicyclic peptide (usually just the bicycle core sequence) is titrated, such that it displaces the fluorescent tracer from the target protein. The displacement of the tracer is measured and associated with a drop in fluorescence polarisation. The drop in fluorescence polarisation is proportional to the fraction of target protein bound with the non-fluorescent titrant, and thus is a measure of the affinity of titrant to target protein.
The raw data is fit to the analytical solution of the cubic equation that describes the equilibria between fluorescent tracer, titrant, and binding protein. The fit requires the value of the affinity of fluorescent tracer to the target protein, which can be determined separately by direct binding FP experiments (see previous section).
A general note: Fluorescence polarisation rises when a labelled molecule tumbles more slowly, as on binding a larger partner.

The mark [1] stands for this setting: Table 2, FP method Competition, tracer A-(17-69-07)-A-Sar6-K(Fluorescein).
Where [2] appears, read: Table 8, substitutions at position 4.
The mark [3] stands for this setting: Table 9, tolerated substitutions at positions 9 and 11.

`CC[C@H](C)[C@@H]1NC(=O)[C@H](CC(=O)O)NC(=O)[C@H](Cc2ccc(O)cc2)NC(=O)[C@H](Cc2ccccc2)NC(=O)[C@H](CC(=O)O)NC(=O)[C@H](CCC(=O)O)NC(=O)[C@@H]2CSCc3cc(cc(c3)CSC[C@@H](C(=O)N[C@@H](C)C(N)=O)NC1=O)CSC[C@H](NC(=O)[C@H](C)N)C(=O)N[C@@H](Cc1ccccc1)C(=O)NCC(=O)N[C@@H](CCC(=O)O)C(=O)N[C@@H](Cc1ccccc1)C(=O)NCC(=O)N2` [17-69-02-N001, A-(17-69-02)-A] (H-ACFGEFGCEDFYDICA-NH2; linker 2-8-15 via TBMB): the dissociation constant (Kd) under setting [1] was determined as 191 nM.

In the case of `CC[C@H](C)[C@@H]1NC(=O)[C@H](CC(=O)O)NC(=O)[C@H](Cc2ccc(O)cc2)NC(=O)[C@H](Cc2ccccc2)NC(=O)[C@H](CC(=O)O)NC(=O)[C@H](CCC(=O)O)NC(=O)[C@@H]2CSCc3cc(cc(c3)CSC[C@@H](C(=O)N[C@@H](C)C(N)=O)NC1=O)CSC[C@H](NC(=O)[C@H](C)N)C(=O)N[C@@H](C(C)C)C(=O)N[C@@H](CC(N)=O)C(=O)N[C@@H](CCC(=O)O)C(=O)N[C@@H](Cc1ccccc1)C(=O)NCC(=O)N2` [17-69-03-N001, A-(17-69-03)-A] (H-ACVNEFGCEDFYDICA-NH2; linker 2-8-15 via TBMB), under setting [1], the equilibrium dissociation constant (Kd) was found to be 16.7 nM.

Consider `CC[C@H](C)[C@@H]1NC(=O)[C@H](CC(=O)O)NC(=O)[C@H](Cc2ccc(O)cc2)NC(=O)[C@H](Cc2ccccc2)NC(=O)[C@H](CC(=O)O)NC(=O)[C@H](CCC(=O)O)NC(=O)[C@@H]2CSCc3cc(cc(c3)CSC[C@@H](C(=O)N[C@@H](C)C(N)=O)NC1=O)CSC[C@H](NC(=O)[C@H](C)N)C(=O)N[C@@H](Cc1ccc(O)cc1)C(=O)N[C@@H](CC(N)=O)C(=O)N[C@@H](CCC(=O)O)C(=O)N[C@@H](Cc1ccccc1)C(=O)NCC(=O)N2` [17-69-07-N001, A-(17-69-07)-A], for which the dissociation constant Kd (Table 3, Competition, tracer A-(17-69-12)-A-Sar6-K(Fluorescein)) is 1.65 ± 0.29 nM.

Take `CC[C@H](C)[C@@H]1NC(=O)[C@H](CC(=O)O)NC(=O)[C@H](Cc2ccc(O)cc2)NC(=O)[C@H](Cc2ccccc2)NC(=O)[C@H](CC(=O)O)NC(=O)[C@H](CCC(=O)O)NC(=O)[C@@H]2CSCc3cc(cc(c3)CSC[C@H](NC(C)=O)C(=O)N[C@@H](Cc3ccc(O)cc3)C(=O)N[C@@H](CC(N)=O)C(=O)N[C@@H](CCC(=O)O)C(=O)N[C@@H](Cc3ccc(O)cc3)C(=O)NCC(=O)N2)CSC[C@@H](C(N)=O)NC1=O` [17-69-07-N057, Ac-(17-69-07) Tyr4] (Ac-CYNEYGCEDFYDIC-NH2; linker 1-7-14 via TBMB): the Kd under setting [2] worked out at 1.78 ± 0.45 nM.

On to `CC[C@H](C)[C@@H]1NC(=O)[C@H](CC(=O)O)NC(=O)[C@H](Cc2ccc(O)cc2)NC(=O)[C@H](Cc2ccccc2)NC(=O)[C@H](CC(=O)O)NC(=O)[C@H](CCC(=O)O)NC(=O)[C@@H]2CSCc3cc(cc(c3)CSC[C@H](NC(C)=O)C(=O)N[C@@H](Cc3ccc(O)cc3)C(=O)N[C@@H](CC(N)=O)C(=O)N[C@@H](CCC(=O)O)C(=O)N[C@@H](Cc3ccccc3)C(=O)N3CCC[C@@H]3C(=O)N2)CSC[C@@H](C(N)=O)NC1=O` [17-69-07-N059, Ac-(17-69-07) D-Pro5] (Ac-CYNEF[dP]CEDFYDIC-NH2; linker 1-7-14 via TBMB), for which, for the setting “Table 6, D-Alanine substitutions in first loop”, the Kd is more than 5000 nM.

Consider `CC[C@H](C)[C@@H]1NC(=O)[C@H](CC(=O)O)NC(=O)[C@H](Cc2ccc(O)cc2)NC(=O)[C@H](Cc2ccccc2)NC(=O)[C@H](CC(=O)O)NC(=O)[C@H](CCC(=O)O)NC(=O)[C@@H]2CSCc3cc(cc(c3)CSC[C@H](NC(C)=O)C(=O)N[C@@H](Cc3ccc(O)cc3)C(=O)N[C@@H](CC(N)=O)C(=O)N[C@@H](CCC(=O)O)C(=O)N[C@@H](C3CCCCC3)C(=O)NCC(=O)N2)CSC[C@@H](C(N)=O)NC1=O` [17-69-07-N065, Ac-(17-69-07) Chg4] (Ac-CYNE[Chg]GCEDFYDIC-NH2; linker 1-7-14 via TBMB), for which, under setting [2], the Kd is more than 5000 nM.

For the compound `CC[C@H](C)[C@@H]1NC(=O)[C@H](CC(=O)O)NC(=O)[C@H](Cc2ccc(O)cc2)NC(=O)[C@H](Cc2ccccc2)NC(=O)[C@H](CC(=O)O)NC(=O)[C@H](CCC(=O)O)NC(=O)[C@@H]2CSCc3cc(cc(c3)CSC[C@H](NC(C)=O)C(=O)N[C@@H](Cc3ccc(O)cc3)C(=O)N[C@@H](CC(N)=O)C(=O)N[C@@H](CCC(=O)O)C(=O)N[C@@H](Cc3cccc4ccccc34)C(=O)NCC(=O)N2)CSC[C@@H](C(N)=O)NC1=O` [17-69-07-N067, Ac-(17-69-07) 1NAl4] (Ac-CYNE[1Nal]GCEDFYDIC-NH2; linker 1-7-14 via TBMB), the dissociation constant Kd under setting [2] turned out to be 0.36 ± 0.12 nM.

Regarding `CC[C@H](C)[C@@H]1NC(=O)[C@H](CC(=O)O)NC(=O)[C@H](Cc2ccc(O)cc2)NC(=O)[C@H](Cc2ccccc2)NC(=O)[C@H](CC(=O)O)NC(=O)[C@H](CCC(=O)O)NC(=O)[C@@H]2CSCc3cc(cc(c3)CSC[C@H](NC(C)=O)C(=O)N[C@@H](Cc3ccc(O)cc3)C(=O)N[C@@H](CC(N)=O)C(=O)N[C@@H](CCC(=O)O)C(=O)N[C@@H](Cc3ccc4ccccc4c3)C(=O)NCC(=O)N2)CSC[C@@H](C(N)=O)NC1=O` [17-69-07-N068, Ac-(17-69-07) 2NAl4] (Ac-CYNE[2Nal]GCEDFYDIC-NH2; linker 1-7-14 via TBMB), the equilibrium dissociation constant (Kd) under setting [2] came to 0.7 ± 0.19 nM.

In the case of `CC[C@H](C)[C@@H]1NC(=O)[C@H](CC(=O)O)NC(=O)[C@H](Cc2ccc(O)cc2)NC(=O)[C@H](Cc2ccccc2)NC(=O)[C@H](CC(=O)O)NC(=O)[C@H](CCC(=O)O)NC(=O)[C@@H]2CSCc3cc(cc(c3)CSC[C@H](NC(C)=O)C(=O)N[C@@H](Cc3ccc(O)cc3)C(=O)N[C@@H](CC(N)=O)C(=O)N[C@@H](CCC(=O)O)C(=O)N[C@@H](c3ccccc3)C(=O)NCC(=O)N2)CSC[C@@H](C(N)=O)NC1=O` [17-69-07-N071, Ac-(17-69-07) Phg4] (Ac-CYNE[Phg]GCEDFYDIC-NH2; linker 1-7-14 via TBMB), the Kd under setting [2] was 628 nM.

In the case of `CC[C@H](C)[C@@H]1NC(=O)[C@H](CC(=O)O)NC(=O)[C@H](Cc2ccc(O)cc2)NC(=O)[C@H](Cc2ccccc2)NC(=O)[C@H](CC(=O)O)NC(=O)[C@H](CCC(=O)O)NC(=O)[C@@H]2CSCc3cc(cc(c3)CSC[C@H](NC(C)=O)C(=O)N[C@@H](Cc3ccc(O)cc3)C(=O)N[C@@H](CC(N)=O)C(=O)N[C@@H](CCC(=O)O)C(=O)N[C@@H](C(C)(C)C)C(=O)NCC(=O)N2)CSC[C@@H](C(N)=O)NC1=O` [17-69-07-N072, Ac-(17-69-07) tBuGly4] (Ac-CYNE[Tle]GCEDFYDIC-NH2; linker 1-7-14 via TBMB), the Kd under setting [2] is more than 5000 nM.

On to `CC(=O)N[C@H]1CSCc2cc3cc(c2)CSC[C@H](NC(=O)CNC(=O)[C@H](Cc2ccccc2)NC(=O)[C@H](CCC(=O)O)NC(=O)[C@H](CC(N)=O)NC(=O)[C@H](Cc2ccc(O)cc2)NC1=O)C(=O)N[C@@H](CCC(=O)O)C(=O)N[C@@H](CC(=O)O)C(=O)N[C@@H](Cc1ccccc1)C(=O)N[C@@H](Cc1ccc(O)cc1)C(=O)N[C@@H](CC(=O)O)C(=O)N[C@@H](C(C)(C)C)C(=O)N[C@H](C(N)=O)CSC3` [17-69-07-N100, Ac-(17-69-07) tBuGly11] (Ac-CYNEFGCEDFYD[Tle]C-NH2; linker 1-7-14 via TBMB), for which the Kd under setting [3] amounted to 1.56 ± 1.14 nM.

Turning to `CC[C@H](C)[C@@H]1NC(=O)[C@H](CC(=O)O)NC(=O)[C@H](Cc2ccc(O)cc2)NC(=O)[C@H](Cc2ccccc2)NC(=O)[C@H](CC(=O)O)NC(=O)[C@H](CCC(=O)O)NC(=O)[C@@H]2CSCc3cc(cc(c3)CSC[C@H](NC(C)=O)C(=O)N[C@@H](Cc3ccc(O)cc3)C(=O)N[C@@H](CC(N)=O)C(=O)N[C@@H](CCC(=O)O)C(=O)N[C@@H](Cc3ccccc3)C(=O)N[C@H](CCCNC(=N)N)C(=O)N2)CSC[C@@H](C(N)=O)NC1=O` [17-69-07-N120, Ac-(17-69-07) D-Arg5] (Ac-CYNEF[dR]CEDFYDIC-NH2; linker 1-7-14 via TBMB), the Kd (Table 7, substitutions at position 5) is 4.24 ± 1.48 nM.

On to `CC[C@H](C)[C@@H]1NC(=O)[C@H](CC(=O)O)NC(=O)[C@H](Cc2ccc(Br)cc2)NC(=O)[C@H](Cc2ccccc2)NC(=O)[C@H](CC(=O)O)NC(=O)[C@H](CCC(=O)O)NC(=O)[C@@H]2CSCc3cc(cc(c3)CSC[C@H](NC(C)=O)C(=O)N[C@@H](Cc3ccc(O)cc3)C(=O)N[C@@H](CC(N)=O)C(=O)N[C@@H](CCC(=O)O)C(=O)N[C@@H](Cc3ccccc3)C(=O)NCC(=O)N2)CSC[C@@H](C(N)=O)NC1=O` [17-69-07-N130, Ac-(17-69-07) 4BrPhe9] (Ac-CYNEFGCEDF[Phe(4-Br)]DIC-NH2; linker 1-7-14 via TBMB), for which the equilibrium dissociation constant (Kd) under setting [3] amounted to 2.45 ± 1.08 nM.

As to `CC[C@H](C)[C@@H]1NC(=O)[C@H](CC(=O)O)NC(=O)[C@H](Cc2ccc(O)cc2)NC(=O)[C@H](Cc2ccccc2)NC(=O)[C@H](CC(=O)O)NC(=O)[C@H](CCC(=O)O)NC(=O)[C@@H]2CSCc3cc(cc(c3)CSC[C@H](NC(C)=O)C(=O)N[C@@H](Cc3ccc(O)cc3)C(=O)N[C@@H](CC(N)=O)C(=O)N[C@@H](CCC(=O)O)C(=O)N[C@@H](Cc3ccc(Cl)c(Cl)c3)C(=O)NCC(=O)N2)CSC[C@@H](C(N)=O)NC1=O` [17-69-07-N137, Ac-(17-69-07) 3,4-DCPhe4], the Kd under setting [2] amounted to 1.85 ± 2.45 nM.

As usually defined, the Kd is a measure of binding affinity in units of concentration.
